Reference: patent US9220268B2, “Herbicidal benzoxazinones” (BASF SE, priority 2009, dated 2015)

Assays:
AMBEL [1] = experiment: greenhouse experiment, pre-emergence, mixtures (Example 2, Colby); format: in vivo, Ambrosia artemisiifolia
From the text: (§1) The culture containers used were plastic pots containing loamy sand with approximately 3.0% of humus as substrate. The seeds of the test plants were sown separately for each species.
(§2) For the pre-emergence treatment, the active compounds, suspended or emulsified in water, were applied directly after sowing by means of finely distributing nozzles. The containers were irrigated gently to promote germination and growth and subsequently covered with transparent plastic hoods until the plants had rooted. This cover caused uniform germination of the test plants unless this was adversely affected by the active compounds.
(§3) Depending on the species, the plants were kept at 10-25° C. and 20-35° C., respectively. The test period extended over 2 to 4 weeks. During this time, the plants were tended and their response to the individual treatments was evaluated.
(§4) Evaluation was carried out using a scale from 0 to 100. 100 means no emergence of the plants, or complete destruction of at least the above-ground parts, and 0 means no damage or normal course of growth. Good herbicidal activity is given at values of at least 70, and very good herbicidal activity is given at values of at least 85.
(§5) The respective stated components A and B, and if appropriate, C were formulated as a 10% by weight strength emulsion concentrate and, with addition of the amount of solvent system, introduced into the spray liquor used for applying the active compound. In the examples, the solvent used was water.
(§6) The test period extended over 20 and 21 days, respectively. During this time, the plants were tended, and their reaction to the treatment with active compound was monitored.
(§7) In the examples below, using the method of S. R. Colby (1967) “Calculating synergistic and antagonistic responses of herbicide combinations”, Weeds 15, p. 22ff., the value E, which is expected if the activity of the individual active compounds is only additive, was calculated. E=X+Y−(X·Y/100) • where • X=percent activity using active compound A at an application rate a; • Y=percent activity using active compound B at an application rate b; • E=expected activity (in %) by A+B at application rates a+b.
(§8) If the value found experimentally is higher than the value E calculated according to Colby, a synergistic effect is present.

BIDPI = experiment: as above; format: in vivo, Bidens pilosa
From the text: as §1, §2
(§9) Depending on the species, the plants were kept at 10-25° C. and 20-35° C., respectively. […] During this time, the plants were tended and their response to the individual treatments was evaluated. […]
as §6
(§10) In the examples below, using the method of S. R. Colby (1967) “Calculating synergistic and antagonistic responses of herbicide combinations”, Weeds 15, p. 22ff., the value E, which is expected if the activity of the individual active compounds is only additive, was calculated. […]
as §8

ELEIN = experiment: as above; format: in vivo, Eleusine indica
From the text: as §1, §2, §9, §6, §10, §8

SORHA = experiment: as above; format: in vivo, Sorghum halepense
From the text: as §1, §2, §9, §6, §10, §8

BRAPL [2] = experiment: greenhouse experiment, post-emergence, mixtures (Example 2, Colby); format: in vivo, Brachiaria plantaginea
Description: as §1
(§11) For the post-emergence treatment, the test plants were grown to a plant height of from 3 to 15 cm, depending on the plant habit, and only then treated with the active compounds which had been suspended or emulsified in water. To this end, the test plants were either sown directly and grown in the same containers, or they were first grown separately as seedlings and transplanted into the test containers a few days prior to treatment.
as §3, §4, §5, §6, §10, §8

SETFA [3] = experiment: as above; format: in vivo, Setaria faberi
Description: as §1, §11, §9, §6, §10, §8

ERBVI [4] = experiment: as above; format: in vivo, Eriochloa villosa
Description: as §1, §11, §9, §6, §10, §8

SORPHA = experiment: as above; format: in vivo, Sorghum halepense
Description: as §1, §11, §9, §6, §10, §8

CHEAL = experiment: greenhouse experiment, pre-emergence, mixtures (Example 2, Colby); format: in vivo, Chenopodium album
From the text: as §1, §2, §3, §4, §5, §6, §7, §8

AMARE = experiment: as above; format: in vivo, Amaranthus retroflexus
From the text: as §1, §2, §3, §4, §5, §6, §10, §8

ALOMY [5] = experiment: greenhouse experiment, post-emergence, mixtures (Example 2, Colby); format: in vivo, Alopercurus myosuroides
Description: as §1, §11, §9, §6, §10, §8

ECHCG [6] = experiment: as above; format: in vivo, Echinocloa crus-galli
Description: as §1, §11, §9, §6, §10, §8

ALOMY [7] = experiment: greenhouse experiment, pre-emergence, mixtures (Example 2, Colby); format: in vivo, Alopercurus myosuroides
From the text: as §1, §2, §9, §6, §10, §8

POLCO = experiment: as above; format: in vivo, Polygonum convolvulus
From the text: as §1, §2, §9, §6, §10, §8

ECHCG [8] = experiment: as above; format: in vivo, Echinocloa crus-galli
From the text: as §1, §2, §9, §6, §10, §8

SETVI = experiment: as above; format: in vivo, Setaria viridis
From the text: as §1, §2, §9, §6, §10, §8

BRAPL [9] = experiment: as above; format: in vivo, Brachiaria plantaginea
From the text: as §1, §2, §9, §6, §10, §8

ERBVI [10] = experiment: as above; format: in vivo, Eriochloa villosa
From the text: as §1, §2, §9, §6, §10, §8

BRAPL [11] = experiment: greenhouse experiment, post-emergence treatment (Use Examples); format: in vivo, Brachiaria plantaginea; settings: post-emergence method; application rate 0.025 kg/ha; scale 0 to 100
From the text: (§12) The culture containers used were plastic flowerpots containing loamy sand with approximately 3.0% of humus as the substrate. The seeds of the test plants were sown separately for each species.
(§13) For the post-emergence treatment, the test plants were first grown to a height of 3 to 15 cm, depending on the plant habit, and only then treated with the active ingredients which had been suspended or emulsified in water. For this purpose, the test plants were either sown directly and grown in the same containers, or they were first grown separately as seedlings and transplanted into the test containers a few days prior to treatment.
(§14) Depending on the species, the plants were kept at 10-25° C. or 20-35° C. The test period extended over 2 to 4 weeks. During this time, the plants were tended, and their response to the individual treatments was evaluated.
(§15) Evaluation was carried out using a scale from 0 to 100. 100 means no emergence of the plants, or complete destruction of at least the aerial moieties, and 0 means no damage, or normal course of growth. A good herbicidal activity is given at values of at least 70 and a very good herbicidal activity is given at values of at least 85.

SETFA [12] = experiment: as above; format: in vivo, Setaria faberi; settings: post-emergence method; application rate 0.025 kg/ha; scale 0 to 100
From the text: as §12, §13, §14, §15

AMBEL [13] = experiment: greenhouse experiment, pre-emergence treatment (Use Examples); format: in vivo, Ambrosia elatior; settings: pre-emergence method; application rate 0.050 kg/ha; scale 0 to 100
From the text: as §12
as §2, with “active ingredients, which had been” for “active compounds,”, “test plants,” for “test plants”, “this has been impaired” for “this was adversely affected”, “active ingredients.” for “active compounds.”
as §14, §15

CC(C)N(C)S(=O)(=O)NC(=O)c1cc(-n2c(=O)cc(C(F)(F)F)n(C)c2=O)c(F)cc1Cl [B.76, saflufenacil, reference compound]
herbicidal activity against AMBEL found (AMBEL [1]; B.76 6.25 g/ha a.s.): 75%
herbicidal activity against BIDPI found (BIDPI; B.76 6.25 g/ha a.s.): 60%
herbicidal activity against ELEIN found (ELEIN; B.76 6.25 g/ha a.s.): 30%
herbicidal activity against SORHA found (SORHA; B.76 6.25 g/ha a.s.): 0%
herbicidal activity against BRAPL found (BRAPL [2]; B.76 12.5 g/ha a.s.): 30%
herbicidal activity against SETFA found (SETFA [3]; B.76 12.5 g/ha a.s.): 30%
herbicidal activity against ERBVI found (ERBVI [4]; B.76 12.5 g/ha a.s.): 60%
herbicidal activity against SORPHA found (SORPHA; B.76 12.5 g/ha a.s.): 25%
herbicidal activity against CHEAL found (CHEAL; B.76 3.12 g/ha a.s.): 30%
herbicidal activity against AMARE found (AMARE; B.76 3.12 g/ha a.s.): 35%

O=C(O)CNCP(=O)(O)O [B.95, glyphosate, reference compound]
herbicidal activity against BRAPL found (BRAPL [2]; B.95 135 g/ha a.s.): 95%
herbicidal activity against ALOMY found (ALOMY [5]; B.95 135 g/ha a.s.): 80%
herbicidal activity against ECHCG found (ECHCG [6]; B.95 135 g/ha a.s.): 85%

CCC(CC)Nc1c([N+](=O)[O-])cc(C)c(C)c1[N+](=O)[O-] [B.101, pendimethalin, reference compound]
herbicidal activity against ALOMY found (ALOMY [7]; B.101 400 g/ha a.s.): 75%
herbicidal activity against POLCO found (POLCO; B.101 400 g/ha a.s.): 40%

COC[C@H](C)N(C(=O)CCl)c1c(C)csc1C [B.106, dimethenamid-p, reference compound]
herbicidal activity against ECHCG found (ECHCG [8]; B.106 15 g/ha a.s.): 85%
herbicidal activity against SETVI found (SETVI; B.106 15 g/ha a.s.): 70%
herbicidal activity against CHEAL found (CHEAL; B.106 15 g/ha a.s.): 10%
herbicidal activity against AMARE found (AMARE; B.106 15 g/ha a.s.): 75%

Cn1nc(C(F)(F)F)c(CS(=O)(=O)C2=NOC(C)(C)C2)c1OC(F)F [B.116, pyroxasulfone, reference compound]
herbicidal activity against AMBEL found (AMBEL [1]; B.116 6.25 g/ha a.s.): 0%
herbicidal activity against BRAPL found (BRAPL [9]; B.116 6.25 g/ha a.s.): 30%
herbicidal activity against ERBVI found (ERBVI [10]; B.116 6.25 g/ha a.s.): 45%

C#CCN1C(=O)C(F)(F)Oc2cc(F)c(-n3c(=O)n(C)c(=S)n(C)c3=O)cc21 [I.a.35, 1,5-dimethyl-6-thioxo-3-(2,2,7-trifluoro-3-oxo-4-(prop-2-ynyl)-3,4-dihydro-2H-benzo [b][1,4]oxazin-6-yl)-1,3,5-triazinane-2,4-dione]
herbicidal activity against BRAPL (BRAPL [11]): very good (a very good herbicidal activity is given at values of at least 85)
herbicidal activity against SETFA (SETFA [12]): very good (a very good herbicidal activity is given at values of at least 85)
herbicidal activity against AMBEL (AMBEL [13]): very good (a very good herbicidal activity is given at values of at least 85)
herbicidal activity against AMBEL found (AMBEL [1]; I.a.35 12.5 g/ha a.s.): 60%
herbicidal activity against AMBEL found (AMBEL [1]; I.a.35 25 g/ha a.s.): 75%
herbicidal activity against BIDPI found (BIDPI; I.a.35 12.5 g/ha a.s.): 30%
herbicidal activity against ELEIN found (ELEIN; I.a.35 12.5 g/ha a.s.): 45%
herbicidal activity against SORHA found (SORHA; I.a.35 12.5 g/ha a.s.): 60%
herbicidal activity against BRAPL found (BRAPL [2]; I.a.35 12.5 g/ha a.s.): 65%
herbicidal activity against SETFA found (SETFA [3]; I.a.35 12.5 g/ha a.s.): 75%
herbicidal activity against ERBVI found (ERBVI [4]; I.a.35 12.5 g/ha a.s.): 70%
herbicidal activity against SORPHA found (SORPHA; I.a.35 12.5 g/ha a.s.): 80%
herbicidal activity against ALOMY found (ALOMY [5]; I.a.35 12.5 g/ha a.s.): 30%
herbicidal activity against ECHCG found (ECHCG [6]; I.a.35 12.5 g/ha a.s.): 75%
herbicidal activity against ALOMY found (ALOMY [7]; I.a.35 25 g/ha a.s.): 65%
herbicidal activity against POLCO found (POLCO; I.a.35 25 g/ha a.s.): 65%
herbicidal activity against ECHCG found (ECHCG [8]; I.a.35 12.5 g/ha a.s.): 30%
herbicidal activity against SETVI found (SETVI; I.a.35 12.5 g/ha a.s.): 90%
herbicidal activity against CHEAL found (CHEAL; I.a.35 3.12 g/ha a.s.): 85%
herbicidal activity against CHEAL found (CHEAL; I.a.35 6.25 g/ha a.s.): 85%
herbicidal activity against BRAPL found (BRAPL [9]; I.a.35 25 g/ha a.s.): 50%
herbicidal activity against ERBVI found (ERBVI [10]; I.a.35 25 g/ha a.s.): 55%
herbicidal activity against AMARE found (AMARE; I.a.35 3.12 g/ha a.s.): 70%
